Reference: patent US9115177B2, “Preparation method of micafungin sodium” (Shanghai Techwell Biopharmaceutical Co., Ltd., priority 2011, dated 2015)
Where two headings read alike, the source gives them in different places. Marks after values point to notes of the source that are not given here. Numbered stars: 1 amine (or outer) side, 2 acyl side, 3 side chain; on linkers, the order of the positions; unused ones are H or OH. Bridge positions count the residues as written; N and C are the ends. Square brackets hold non-standard residues; d marks the D form. Peptide text beside a SMILES is read from it. * marks the point of attachment. hTyr(3S-OH,4S-OH,3'-OSO3H) = N[C@H](C(=O)O)[C@H](O)[C@@H](O)c1ccc(O)c(OS(=O)(=O)O)c1; Orn(4R-OH,5R-OH) = O=C([C@H](C[C@@H](O)[C@@H](O)N[*:3])N[*:1])[*:2]; Pro(3S-OH,4S-Me) = C[C@H]1CN[C@H](C(=O)O)[C@H]1O; X1 = CCCCCOc1ccc(-c2cc(-c3ccc(C(=O)*)cc3)no2)cc1; Gln(3R-OH) = NC(=O)C[C@@H](O)[C@H](N)C(=O)O; Hyp = O=C(O)[C@@H]1C[C@@H](O)CN1

Tests used:
[1] = pH adjustment of formula I compound with 0.1 mol/L NaOH solution, HPLC; assay type: physicochemical; settings: pH adjusted with 0.1 mol/L NaOH solution added dropwise
Description: The inventors have repeated the method reported in WO2004014879 for multiple times and analyzed and validated the reported method from the point of view of local pH value.
The method for measuring HPLC purity of Formula I compound is shown as follows.
HPLC analytical column: YMC-ODS 250×4.6 mm, 5 μm
Mobile phase: acetonitrile: phosphate buffer (pH 3.0)=[…]
Column temperature: 35±5° C.
Dilution: phosphate buffer in water
Wave length detected: 210 nm
Volume of sample injection: 10 μl
Retention time of the main peak: approx. 18 min.
According to the purification process for micafungin in WO2004014879, ion exchange was applied to 0.5 g of compound of formula I by using 50 ml of cation exchange resin UBK510L. The product was sampled and analyzed. HPLC purity was determined as 99.54%. […] The product was sampled and analyzed. HPLC purity was determined as 98.01% (See FIG. 2). […] The produce was sampled and analyzed. HPLC purity was determined as 97.90%. […] The product was sampled and analyzed. HPLC purity was determined as 97.81%. […] The product was sampled and analyzed. HPLC purity was determined as 97.75%. […] The product was sampled and analyzed. HPLC purity was determined as 97.67%. […] The product was sampled and analyzed. HPLC purity was determined as 97.59%. […] The product was sampled and analyzed.

[2] = pKa values of compounds of benzene sulfonic acid; assay type: physicochemical
Description: Generally, there are two ways for preparing acid into sodium salt. One is exchange using cationic resin; the other is via adjusting pH value. Virtually, preparing sodium salt by adjusting pH value is a process of neutralization reaction between acid and base. It includes two types of reactions, i.e. the reaction between strong acid and strong base, and the reaction between […]. If strong base solution is added into strong acid solution for adjusting pH value, there is a sharp change in the pH value of the solution (the change of pH value is illustrated in FIG. 6), and the pH value will be instantly altered by 8. Therefore in the practical production, it is hard to control the pH value and a slightest mistake could lead to an overregulated pH value. In WO2004014879, a 0.1 mol/L NaOH solution was used to adjust pH value to 6-8 for obtaining formula II compound. It was actually a reaction between strong acid and strong base. […] Therefore, theoretically, the method using NaOH solution to adjust pH values for obtaining sodium salt is unsuitable for preparation of formula II compound.

[3] = conjugate acid of weak base; cited from earlier work

## CCCCCOc1ccc(-c2cc(-c3ccc(C(=O)N[C@H]4C[C@@H](O)[C@@H](O)NC(=O)[C@@H]5[C@@H](O)[C@@H](C)CN5C(=O)[C@H]([C@H](O)CC(N)=O)NC(=O)[C@H]([C@H](O)[C@@H](O)c5ccc(O)c(OS(=O)(=O)O)c5)NC(=O)[C@@H]5C[C@@H](O)CN5C(=O)[C@H]([C@@H](C)O)NC4=O)cc3)no2)cc1 [micafungin, Micafungin] (X1-[Orn(4R-OH,5R-OH)]T[Hyp][hTyr(3S-OH,4S-OH,3'-OSO3H)][Gln(3R-OH)][Pro(3S-OH,4S-Me)]; lactam 1-C)
[1]
  degradation after pH adjustment (HPLC): obvious degradation
[2]
  pKa: < 1
pH 4.0-6.0
  stability in solution: more stable
pH 4.0-7.0
  stability in solution: stability is good
pH 4.5-5.5
  stability in solution: most stable
pH of solution adjusted to 7
  stability in solution: no obvious degradation
Solution with high pH value
  stability in solution: poor stability

## OB(O)O [boric acid]
[3]
  pKa1: 9.24
  pKa2: 12.74^a
  pKa3: 13.80^a

## O=C(O)CC(O)C(=O)O (centres unmarked) [malic acid]
[3]
  pKa1: 3.40^a
  pKa2: 5.13

## S [hydrosulfuric acid]
[3]
  pKa1: 6.88
  pKa2: 14.15^a

## C/C=C/C=C/C(=O)O [sorbic acid]
[3]
  pKa1: 4.76

## O=S(O)O [sulfurous acid]
[3]
  pKa1: 1.90^a
  pKa2: 7.20
